Reference: patent publication US20120165304A1, “6,7,8,9-Tetrahydro-5H-1,4,7,10a-tetraaza-cyclohept[f]indene derivatives, pharmaceutical compositions containing these compounds, their use and processes for preparing them” (BOEHRINGER INGELHEIM INTERNATIONAL GMBH, priority 2008, published 2012)

Biological target: human 5-HT2C receptor (Homo sapiens, UniProt P28335, I156V/I160V/N158S)
Test: cell-based

Chain of human 5-HT2C receptor (P28335 33-458 I156V/N158S/I160V limits assumed): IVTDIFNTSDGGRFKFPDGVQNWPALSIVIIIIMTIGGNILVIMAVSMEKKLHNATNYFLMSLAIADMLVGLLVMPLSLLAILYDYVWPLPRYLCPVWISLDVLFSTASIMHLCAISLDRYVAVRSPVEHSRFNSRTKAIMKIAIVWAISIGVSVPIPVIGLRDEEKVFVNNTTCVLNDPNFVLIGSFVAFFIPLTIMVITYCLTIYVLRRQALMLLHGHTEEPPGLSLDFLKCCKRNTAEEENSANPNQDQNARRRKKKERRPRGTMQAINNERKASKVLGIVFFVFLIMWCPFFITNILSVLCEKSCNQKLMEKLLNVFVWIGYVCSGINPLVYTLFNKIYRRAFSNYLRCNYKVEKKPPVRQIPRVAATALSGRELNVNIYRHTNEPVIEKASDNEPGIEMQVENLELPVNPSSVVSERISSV

| SMILES | EC50 |
| --- | --- |
| O=C(NC1(c2ccc(F)cc2)CC1)C1CN(c2c3c(nc4ccnn24)CCNCC3)C1 [Example 31.93] | 786 nM |
| c1ccc(CN2CCN(c3c4c(nc5ccnn35)CCNCC4)CC2)cc1 [Example 1.1] | 108 nM |
| CCN1CCCC1CNC(=O)C1CN(c2c3c(nc4ccnn24)CCN(C)CC3)C1 (centres unmarked) [Example 36.4] | 252 nM |
| CCc1ccc(CN(C)C(=O)C2CN(c3c4c(nc5ccnn35)CCNCC4)C2)cc1 [Example 31.170] | 64 nM |
| O=C(C1CN(c2c3c(nc4ccnn24)CCNCC3)C1)N1CCCC(F)(F)CC1 [Example 40, (4,4-Difluoro-perhydro-azepin-1-yl)-[1-(6,7,8,9-tetrahydro-5H-1,4,7,10a-tetraaza-cyclohept[f]inden-10-yl)-azetidin-3-yl]-methanone] | 6 nM |
| CN(Cc1cccc(F)c1)C(=O)C1CN(c2c3c(nc4ccnn24)CCNCC3)C1 [Example 31.125] | 38 nM |
| CCN(Cc1ccccc1)C(=O)C1CN(c2c3c(nc4ccnn24)CCNCC3)C1 [Example 31.23] | 346 nM |
| O=C(C1CN(c2c3c(nc4ccnn24)CCNCC3)C1)N1CCN(C2CCCC2)CC1 [Example 37.11] | 2 nM |
| CN(CCC1CCCCC1)C(=O)C1CN(c2c3c(nc4ccnn24)CCNCC3)C1 [Example 31.84] | 126 nM |
| CN(C)CCNC(=O)C1CN(c2c3c(nc4ccnn24)CCNCC3)C1 [Example 37.74] | 29 nM |
| O=C(C1CN(c2c3c(nc4ccnn24)CCNCC3)C1)N1CCC(Cc2ccc(Cl)cc2)C1 (centres unmarked) [Example 31.120] | 103 nM |
| CC(C)CCNC(=O)C1CN(c2c3c(nc4ccnn24)CCN(C)CC3)C1 [Example 36.56] | 217 nM |
| COc1ccccc1OC1CN(c2c3c(nc4ccnn24)CCNCC3)C1 [Example 35.54] | 85 nM |
| Cc1cnn2c(N3CC(C(=O)N4CCC5(CCCCC5)CC4)C3)c3c(nc12)CCNCC3 [Example 31.235] | 84 nM |
| CC(=O)NC1CCN(C(=O)C2CN(c3c4c(nc5ccnn35)CCN(C)CC4)C2)CC1 [Example 36.28] | 380 nM |
| Fc1ccc2[nH]c(C3CN(c4c5c(nc6ccnn46)CCNCC5)C3)nc2c1F [Example 34.23] | 594 nM |
| O=C(C1CN(c2c3c(nc4ccnn24)CCNCC3)C1)N1CCc2ccc(C(F)(F)F)cc2C1 [Example 31.107] | 52 nM |
| O=C(NCC1CCCCC1)C1CN(c2c3c(nc4ccnn24)CCNCC3)C1 [Example 31.225] | 111 nM |
| C#CCCNC(=O)C1CN(c2c3c(nc4ccnn24)CCNCC3)C1 [Example 37.48] | 141 nM |
| O=C(NC1CCc2ccccc21)C1CN(c2c3c(nc4ccnn24)CCNCC3)C1 (centres unmarked) [Example 31.32] | 49 nM |
| O=C(C1CN(c2c3c(nc4ccnn24)CCNCC3)C1)N1CCC(F)CC1 [Example 31.206] | 146 nM |
| CN1CCc2nc3ccnn3c(N3CC(C(=O)N4CCN(C)C(=O)C4)C3)c2CC1 [Example 36.19] | 257 nM |
| CC(=O)N1CCN(C(=O)C2CN(c3c4c(nc5ccnn35)CCNCC4)C2)CC1 [Example 37.36] | 10 nM |
| Cc1cccnc1CN(C)C(=O)C1CN(c2c3c(nc4ccnn24)CCNCC3)C1 [Example 31.196] | 195 nM |
| CCn1c(C2CN(c3c4c(nc5ccnn35)CCNCC4)C2)nc2cc(F)ccc21 [Example 34.39] | 666 nM |
| FC(F)(F)c1cccc(N2CCN(c3c4c(nc5ccnn35)CCNCC4)CC2)c1 [Example 7.3] | 484 nM |

| SMILES | EC50 |
| --- | --- |
| O=C(C1CN(c2c3c(nc4ccnn24)CCNCC3)C1)N1CCC(O)(c2cccc(C(F)(F)F)c2)CC1 [Example 31.226] | 74 nM |
| Fc1c(Cl)cccc1OCC1CN(c2c3c(nc4ccnn24)CCNCC3)C1 [Example 15.25] | 212 nM |
| O=C(C1CN(c2c3c(nc4ccnn24)CCNCC3)C1)N1CCC(Oc2ccccc2Cl)CC1 [Example 31.145] | 94 nM |
| O=C(C1CN(c2c3c(nc4c(Br)cnn24)CCNCC3)C1)N1CCC2(CCCCC2)C1 [Example 31.134] | 117 nM |
| CC(C)c1ccc(OC2CN(c3c4c(nc5ccnn35)CCNCC4)C2)cc1 [Example 35.44] | 256 nM |
| CC(C)CN(Cc1ccc(F)cc1)C(=O)C1CN(c2c3c(nc4ccnn24)CCNCC3)C1 [Example 31.198] | 1810 nM |
| Fc1ccc(OC2CN(c3c4c(nc5ccnn35)CCNCC4)C2)cc1F [Example 35.55] | 115 nM |
| Cc1cnn2c(N3CCC3)c3c(nc12)CCNCC3 [Example 27, 10-Azetidin-1-yl-3-methyl-6,7,8,9-tetrahydro-5H-1,4,7,10a-tetraaza-cyclohepta[f]indene] | 49 nM |
| O=C(C1CN(c2c3c(nc4ccnn24)CCNCC3)C1)N1CCCC2(CCCc3ccccc32)C1 (centres unmarked) [Example 31.172] | 765 nM |
| O=C(C1CN(c2c3c(nc4ccnn24)CCNCC3)C1)N1CCCCC(F)(F)C1 [Example 41, (3,3-Difluoro-perhydro-azepin-1-yl)-[1-(6,7,8,9-tetrahydro-5H-1,4,7,10a-tetraaza-cyclohept[f]inden-10-yl)-azetidin-3-yl]-methanone] | 7 nM |
| CCN1CCCC1CNC(=O)C1CN(c2c3c(nc4ccnn24)CCNCC3)C1 (centres unmarked) [Example 37.90] | 12 nM |
| COc1ccccc1C1CCN(c2c3c(nc4ccnn24)CCNCC3)C1 (centres unmarked) [Example 1.21] | 1150 nM |
| O=C(NC1CCOC1)C1CN(c2c3c(nc4ccnn24)CCNCC3)C1 (centres unmarked) [Example 37.67] | 67 nM |
| CC1CNCCc2nc3ccnn3c(N3CCC3)c21 (centres unmarked) [Example 5, 10-Azetidin-1-yl-9-methyl-6,7,8,9-tetrahydro-5H-1,4,7,10a-tetraaza-cyclohepta[f]indene] | 570 nM |
| O=C(Nc1ccccc1)C1CN(c2c3c(nc4ccnn24)CCNCC3)C1 [Example 31.16] | 2390 nM |
| O=C(C1CN(c2c3c(nc4ccnn24)CCNCC3)C1)N1CCC(c2ccccc2)CC1 [Example 31.63] | 31 nM |
| CC(C)C1CCN(C(=O)C2CN(c3c4c(nc5ccnn35)CCN(C)CC4)C2)CC1 [Example 36.20] | 63 nM |
| CN(Cc1ccc(F)cc1)C(=O)C1CN(c2c3c(nc4ccnn24)CCNCC3)C1 [Example 31.96] | 26 nM |
| O=C(C1CN(c2c3c(nc4ccnn24)CCNCC3)C1)N1CCC(O)(c2cc(F)cc(F)c2)CC1 [Example 31.195] | 7 nM |
| O=C(C1CN(c2c3c(nc4ccnn24)CCNCC3)C1)N1CCC(c2ccccc2)C1 (centres unmarked) [Example 31.98] | 45 nM |
| CC(=O)N(C)C1CCN(C(=O)C2CN(c3c4c(nc5ccnn35)CCNCC4)C2)CC1 [Example 37.30] | 8 nM |
| Fc1ccccc1OC1CN(c2c3c(nc4ccnn24)CCNCC3)C1 [Example 1.8] | 5 nM |
| CN(C(=O)C1CN(c2c3c(nc4ccnn24)CCNCC3)C1)C1CCCC1 [Example 31.12] | 820 nM |
| CCCC1CCN(C(=O)C2CN(c3c4c(nc5ccnn35)CCNCC4)C2)CC1 [Example 31.69] | 36 nM |
| COc1cccc(COC2CN(c3c4c(nc5ccnn35)CCNCC4)C2)c1 [Example 20.13] | 347 nM |
| Fc1cccc(OCC2CN(c3c4c(nc5ccnn35)CCNCC4)C2)c1 [Example 15.19] | 21 nM |

| SMILES | EC50 |
| --- | --- |
| O=C(NC1CC2CCC1C2)C1CN(c2c3c(nc4ccnn24)CCNCC3)C1 (centres unmarked) [Example 37.84] | 62 nM |
| O=C(C1CN(c2c3c(nc4ccnn24)CCNCC3)C1)N1CCc2ccccc2C1 [Example 31.60] | 57 nM |
| c1cc2nc3c(c(C4CCC4)n2n1)CCNCC3 [Example 23, 10-Cyclobutyl-6,7,8,9-tetrahydro-5H-1,4,7,10a-tetraaza-cyclohepta[f]indene] | 114 nM |
| CC1CCN(C(=O)C2CN(c3c4c(nc5ccnn35)CCNCC4)C2)C1 (centres unmarked) [Example 31.124] | 94 nM |
| CN1CCc2nc3ccnn3c(N3CC(C(=O)N4CCC(C(F)(F)F)C4)C3)c2CC1 (centres unmarked) [Example 36.27] | 89 nM |
| CC1(C)CCCN(C(=O)C2CN(c3c4c(nc5ccnn35)CCNCC4)C2)C1 [Example 31.30] | 338 nM |
| CC1(C(=O)N2CCC(c3ccccc3F)CC2)CN(c2c3c(nc4ccnn24)CCNCC3)C1 [Example 32.6] | 2780 nM |
| CNC1CCN(C(=O)C2CN(c3c4c(nc5ccnn35)CCNCC4)C2)CC1 [Example 37.14] | 1 nM |
| O=C(C1CN(c2c3c(nc4ccnn24)CCNCC3)C1)N1CCC(c2ccc(F)cc2)CC1 [Example 31.110] | 30 nM |
| COc1ccc2c(c1)CCN2C(=O)C1CN(c2c3c(nc4ccnn24)CCNCC3)C1 [Example 31.218] | 40 nM |
| CC(C)CC(=O)N1CCN(C(=O)C2CN(c3c4c(nc5ccnn35)CCNCC4)C2)CC1 [Example 37.57] | 27 nM |
| C[C@@H]1CN(C(=O)C2CN(c3c4c(nc5ccnn35)CCNCC4)C2)C[C@H](C)O1 [Example 31.42] | 37 nM |
| O=C(C1CN(c2c3c(nc4ccnn24)CCNCC3)C1)N1CCC(CCc2ccccc2)C1 (centres unmarked) [Example 31.99] | 64 nM |
| O=C(C1CN(c2c3c(nc4ccnn24)CCNCC3)C1)N1CCCC(c2ccccc2)C1 (centres unmarked) [Example 31.108] | 113 nM |
| O=C(C1CN(c2c3c(nc4ccnn24)CCNCC3)C1)N1CCCC(c2cccc(F)c2)C1 (centres unmarked) [Example 31.215] | 155 nM |
| CN(Cc1ccc(C(F)(F)F)cc1)C(=O)C1CN(c2c3c(nc4ccnn24)CCNCC3)C1 [Example 31.87] | 36 nM |
| Cc1cccc(OC2CN(c3c4c(nc5ccnn35)CCNCC4)C2)c1 [Example 35.51] | 126 nM |
| O=C(C1CN(c2c3c(nc4ccnn24)CCNCC3)C1)N1CCCC2CCCCC21 (centres unmarked) [Example 31.127] | 1280 nM |
| CN(Cc1ccccc1)C(=O)C1CN(c2c3c(nc4ccnn24)CCNCC3)C1 [Example 31.19] | 50 nM |
| O=C(NC1CCCOC1)C1CN(c2c3c(nc4ccnn24)CCNCC3)C1 (centres unmarked) [Example 37.49] | 44 nM |
| c1ccc(OC2CN(c3c4c(nc5ccnn35)CCNCC4)C2)nc1 [Example 20.6] | 38 nM |
| COc1cc(Br)ccc1OC1CN(c2c3c(nc4ccnn24)CCNCC3)C1 [Example 35.17] | 88 nM |
| CN(C)C1CN(C(=O)C2CN(c3c4c(nc5ccnn35)CCNCC4)C2)C1 [Example 37.33] | 7 nM |
| Cn1c(C2CN(c3c4c(nc5ccnn35)CCNCC4)C2)nc2ccccc21 [Example 34.1] | 53 nM |
| CN(Cc1ccn(C)n1)C(=O)C1CN(c2c3c(nc4ccnn24)CCNCC3)C1 [Example 31.54] | 107 nM |
